According to EP2497775A1, “Ferrocene-based compounds and their use as ROS regulating prodrugs” (Ruprecht-Karls-Universität Heidelberg, priority 2011, dated 2012):
Like-named read-outs stand apart in the source and are kept apart here.

How the values were obtained:
[1] = Release of iron ions from the prodrugs in the presence of hydrogen peroxide (2,2'-bipyridine absorbance); type: physicochemical; conditions: H2O2 (1 mM), 22°C, 100 min, MOPS buffer pH 7.5; relative to FeSO4 (100 µM)
Experimental: Monitoring release of iron ions from the prodrugs A-E, Comparative Example and control compounds in the presence of hydrogen peroxide (Table 1):
Solution of a ferrocene complex (10 µL, 10 mM in DMF containing 2% water and 1% sodium ascorbate) was diluted with MOPS buffer (990 µL, 100 mM, pH 7.5). Such probes were incubated with H2O2 (1 mM) at 22°C for 100 min. Then the reaction was quenched by adding sodium dithionite (20 µL, 1 M in water) that converts Fe^3+ into Fe^2+. Finally, 2,2'-bipyridine solution (3 µL, 100 mM in DMF) was added to form dark red [Fe(2,2'-bipyridine)3]^2+ complex (λmax= 519 nm). FeSO4 sulfate (100 µM) was used as a positive control to determine the absorbance intensity when the ferrocene complexes were completely converted by H2O2 to free Fe^2+. […] The data are provided in Table 2 and were determined by using the following formulae: iron release efficacy = (A519nm(prodrug) - A519nm(buffer)) / (A519nm(FeSO4) - A519nm(buffer)), where A519nm(prodrug) is absorbance at 519 nm of a prodrug treated with H2O2 and 2,2'-bipyridine as described above, A519nm(FeSO4) is absorbance at 519 nm of FeSO4 treated in a similar way as a prodrug and A519nm(buffer) is absorbance at 519 nm of the buffer only treated in a similar way as a prodrug.

[2] = Generation of ROS in vitro (DCFH fluorescence, cell-free); type: biochemical; conditions: iron complex 100 µM, H2O2 (10 mM), glutathione (5 mM), pH 7.5, relative to FeSO4
Experimental: Monitoring generation of ROS in the presence of the prodrugs A-E, Comparative Example and control compounds (Table 1):
2',7'-Dichlorfluorescin diacetate (DCFH-DA, 4.9 mg) was dissolved in DMF (100 µL) and mixed with aqueous NaOH (0.1 M, 900 µL). The resulting mixture was incubated for 30 min at 22°C in the dark to obtain the stock solution of 2',7'-dichlorfluorescin (DCFH, 10 mM). Next, the solution (1 mL) containing DCFH (10 µM), MOPS buffer (100 mM, pH 7.5), EDTA (10 mM), glutathione (5 mM) and H2O2 (10 mM) was prepared. Monitoring of fluorescence (λex= 501 nm, λem= 531 nm) of this solution was started. After 3 min, an iron complex (100 µM: ferrocene prodrugs A-E, Comparative Example, negative or positive controls 1 a, P) was added and the fluorescence monitoring was continued. Efficacy of ROS generation was then determined 17 and 37 min after the addition of the iron complex by using the following formulae: efficacy = (F(prodrug) - F0) / (F(FeSO4) - F0), where F(prodrug) is fluorescence of a mixture containing prodrug and treated as described above, F(FeSO4) is fluorescence of a mixture containing FeSO4; F0 is fluorescence of a mixture containing no iron complex.

[3] = tested on: HL60-cells; experiment: Cell permeability of the prodrugs (boron/curcumin assay); type: cell-based, Human; conditions: 100 µM, 1 h, boron relative to comparative example C.-E.
Experimental: Assay for determination of cell Permeability of the prodrugs (Table 2) (according to the protocol described in J.Plant Nutr. Soil Sci. 1999,162,15-18) HL60-cells grown in RPMI 1640 medium supplemented with 10 % FCS, 1 % glutamine and 1% penicillin / streptomycin were centrifuged and the medium was replaced with RPMI 1640 medium (5 % FCS, 1 % L-glutamine, 1% penicillin) to obtain suspensions containing 10^6 cells per mL. Solutions of prodrugs (5 µL, solvent: DMF containing 2 % water and 1 % sodium ascorbate) were added to the suspensions (500 µL) and incubated for 1 h. The final concentration of the prodrugs in the suspensions was 100 µM. Then the cells were washed 3 times with PBS buffer (3 x 500 µL), treated with concentrated H2O2 solution (200 µL, 1 M) for 30 min and all volatiles were removed by lyophilization. Dry, lysed cells were washed with water (200 µL) and aqueous solution obtained was acidified with HCl (400 µL, 0.1 M). Then this solution was extracted with ethyl-1,3-hexandiol (100 µL, 10 % in CHCl3, v/v) and a portion of the organic phase obtained (40 µL) was mixed with H2SO4 / CH3CO2H (400 µL, 1/1, v/v). Curcumin solution in methylisobutylketone (500 µL, 2 mg in 1 mL of the solvent) was added and allowed to react for 24 h. The reaction was quenched by addition of water (1 mL). […] The value A(550 nm)-A(780 nm) was proportional to concentration of boron in the mixture. Amount of boron released from comparative example C.-E. was taken as a reference. All other values were determined relative to this reference. These values are compared in Table 2 with TLC retention factors, which are proportional to hydrophobicity of the prodrugs.

[4] = TLC retention factor as measure of hydrophobicity; type: physicochemical; conditions: support - SiO2, eluent - hexane / ethyl acetate (3/1, v/v); proportional to hydrophobicity
[5] = tested on: HL-60 cells; experiment: Generation of ROS in cells (DCFH-DA, flow cytometry); type: cell-based, Human; conditions: 50 µM, 4 h
Experimental: Generation of ROS in HL-60 cells in the presence the prodrugs, comparative example C.-E. and controls (Table 3)
The probe of HL-60 cells was taken from the cultivation medium (RPMI 1640 supplemented with 10 % FCS, 1 % L-glutamine and 1% penicillin). The medium was replaced for PBS-buffer to obtain the cell suspension with 10^6 cells per mL. DCFH-DA solution (1 µL, 10 mM in DMSO) was added to the suspension (1 mL) and incubated in the dark chamber filled with CO2 (5 %) at 37 °C for 5 min. Then, the cells were washed with PBS and RPMI 1640 (5 % FCS, 1 % L-glutamine, 1% penicillin) medium and an iron complex (10 µL of stock solutions, solvent: DMF containing 2 % water and 1 % sodium ascorbate, final concentration of the complex - 50 µM) was added. After 4 h of the incubation the fluorescence of live cells (λex = 488 nm, λem = 530 nm) in the suspensions was determined by using the flow cytometer. Efficacy of ROS generation was determined using the following formulae: efficacy = (F(prodrug) - F0) / (F(FeSO4) - F0), where F(prodrug) is mean fluorescence intensity of cells incubated with a prodrug and treated as described above, F(FeSO4) is mean fluorescence intensity of cells incubated with FeSO4; F0 is mean fluorescence intensity of cells, which were not treated with any iron complex.

[6] = tested on: Human promyelocytic leukemia cells (HL-60); experiment: Viability of HL-60 cells (propidium iodide, flow cytometry); type: cell-based; conditions: read-out: Toxicity of the complexes: IC50
Experimental: Determination of viability of HL-60 cells (Table 4)
HL-60 cells grown in RPMI 1640 medium supplemented with 10 % FCS, 1 % L-glutamine and 1% penicillin were centrifuged, the medium was replaced with RPMI 1640 medium (5 % FCS, 1 % L-glutamine, 1% penicillin) to obtain suspensions containing 10^6 cells per mL. Stock solutions of prodrugs of different concentrations (5 µL, solvent: DMF containing 2 % water and 1 % sodium ascorbate) were added to the cellular suspensions (500 µL) and incubated for specific periods of time. Four experiments were conducted for each concentration of the prodrug. At the end of the incubation period propidium iodide (PI, 1 µL, 1.5 mM in water) was added to label leaky cells and in 5 min the suspension of the cells was analyzed by using flow cytometry.

[7] = Formation of ferrocenium ions in the presence of H2O2 (absorbance at 300 nm); type: physicochemical; conditions: 100 µM complex in dimethylformamide, 9.8 mM H2O2 (Figure 1)
Experimental: Figure 1: Iron complexes (100 µM) were dissolved in dimethylformamide and concentrated H2O2 solution (30 % in water, 1 µL) was added: final H2O2 concentration was 9.8 mM. Light absorbance at 300 nm was monitored as a function of time.
Monitoring formation of ferrocenium ions from the prodrugs A and B, as well as comparative example C.-E
Formation of ferrocenium ions from ferrocenes correlates with the increased light absorption in the region between 250 and 350 nm. In this spectral region […] have intense charge transfer transitions, whereas ferrocenes have only weak transitions (Y.S. Sohn, D.N. Hendrickson, H.B. Grey, J. Am. Chem. Soc., 1971, 93(15), 3603 - 3612).

[8] = tested on: Fibroplasts; experiment: Viability of fibroplasts (MTT); type: cell-based; conditions: Fibroplasts (normal cells); read-out: Toxicity of the complexes: IC50
Experimental: Determination of viability of fibroplasts (Table 4)
Cells were grown either in DMEM medium (Dulbecco's Modified Eagle's Medium) supplemented with 10 % FCS, 1 % L-glutamine and 1% streptomycin/ penicillin up to 80-90 % confluence. Then the cells were trypsinated, washed, re-suspended in the same medium and spread in wells of a 96-wells microtiter plate (-25.000 cells per well, per 100 µL) and left standing at 37 °C in the chamber filled with CO2 (5 %) for 5 h. Stock solutions of prodrugs of different concentrations (1 µL, solvent: DMF / water (1/3, v/v) containing 1 % sodium ascorbate) were added to the wells and incubated for specific periods of time. Four experiments were conducted for each concentration of the prodrug.

[9] = tested on: MIRW5 (melanoma); conditions: cited from earlier work
[10] = tested on: A375 (melanoma); conditions: cited from earlier work
[11] = tested on: C8161 (melanoma); conditions: cited from earlier work
[12] = tested on: HEY (ovary); conditions: cited from earlier work
[13] = tested on: BE (ovary); conditions: cited from earlier work
[14] = tested on: C480 (colon); conditions: cited from earlier work
[15] = tested on: MCF-7 (breast); conditions: cited from earlier work
[16] = tested on: 8226 (myeloma); conditions: cited from earlier work
[17] = tested on: 8226-Dox 40 (myeloma); conditions: cited from earlier work
[18] = tested on: CIN8/27B (myeloma); conditions: cited from earlier work
[19] = tested on: MES-SA human uterine cancer; conditions: ref. [6]; cited from earlier work
[20] = 72 h incubation (value in brackets)

Row | Efficacy of iron release in vitro [1] | Relative efficiency of cell loading [3] | TLC-retention factor (Rf) [4] | Compound | Efficacy of ROS generation in vitro ([2]; 17 min incubation) | Efficacy of ROS generation in vitro ([2]; 37 min incubation) | Efficacy of ROS release in cells [5] | IC50 [6] [µM] | also measured
1 | 0 | 2.3 | 0.51 | 4-((N-(4-ethylbenzyl)-N-Ferrocenylaminocarbonyl)oxymethyl)-2-phenylboronic acid pinacol ester [Prodrug D] | 0.09 | 0.24 | 0.03 ± 0.02 | 14 | IC50 ([6]; listed as prodrug D): 12 to 26 µM
2 | 0 | 1.5 | 0.50 | 4-((N-(4-methylbenzyl)-N-Ferrocenylaminocarbonyl)oxymethyl)-2-phenylboronic acid pinacol ester [Prodrug C] | 0.10 | 0.42 | – | 12 ± 1 | IC50 ([6]; listed as prodrug C): 12 to 26 µM
3 | 0.72 | – | 0.47 | 4-((N-Ethyl-N-Ferrocenylaminocarbonyl)oxymethyl)-2-phenylboronic acid pinacol ester [Prodrug A] | 0.50 | – | 0.06 ± 0.03 | 26 ± 3 | IC50 ([6]; listed as prodrug A): 12 to 26 µM
4 | 0.09 | 1.8 | 0.46 | 4-((N-benzyl-N-Ferrocenylaminocarbonyl)oxymethyl)-2-phenylboronic acid pinacol ester [Prodrug B] | 0.24 | 0.53 | 0.09 ± 0.02 | 12 ± 2 | IC50 ([6]; listed as prodrug B): 12 to 26 µM; IC50 [8]: > 50 µM

The next lines start with the compound.

Row | Compound | Efficacy of iron release in vitro [1] | Relative efficiency of cell loading [3] | TLC-retention factor (Rf) [4] | Efficacy of ROS generation in vitro ([2]; 17 min incubation) | Efficacy of ROS generation in vitro ([2]; 37 min incubation) | Efficacy of ROS release in cells [5] | IC50 [6] [µM] | also measured
5 | 4-((N-Ferrocenylaminocarbonyl)oxymethyl)-2-methylphenylboronic acid pinacol ester [Prodrug E] | 0.74 | – | 0.45 | 0.52 | – | 0.04 ± 0.02 | 39 ± 4 | formation of ferrocenium ions [7]: rather decomposed with formation of iron ions
6 | N=C1NC(=O)N2CC12 (stereo not drawn) [Imexon (Amplimexon), Imexon] | – | – | – | – | – | – | – | IC50 ([9]; 24 h incubation): 315 µM; IC50 [9, 20]: 63 µM; IC50 ([10]; 24 h incubation): 54 µM; IC50 [10, 20]: 45 µM; IC50 ([11]; 24 h incubation): 72 µM; IC50 [11, 20]: 135 µM; IC50 ([12]; 24 h incubation): 180 µM; IC50 [12, 20]: 270 µM; IC50 ([13]; 24 h incubation): 450 µM; IC50 [13, 20]: 270 µM; IC50 ([14]; 24 h incubation): 270 µM; IC50 [14, 20]: 135 µM; IC50 ([15]; 24 h incubation): 270 µM; IC50 [15, 20]: 450 µM; IC50 ([16]; 24 h incubation): 40 µM; IC50 [16, 20]: 41 µM; IC50 ([17]; 24 h incubation): 40 µM; IC50 [17, 20]: 36 µM; IC50 ([18]; 24 h incubation): 270 µM; IC50 [18, 20]: 90 µM
7 | CC(=O)[O-].CC(=O)[O-].CCc1c(CC)c2cc3nc(cnc4cc(OCCOCCOCCOC)c(OCCOCCOCCOC)cc4ncc4nc(cc1[n-]2)C(CCCO)=C4C)C(C)=C3CCCO.[Gd+3] [Motexafin gadolinium] | – | – | – | – | – | – | – | IC50 [19]: ~12 µM
